Type in all cases: in vivo
Assay [1] relates to splenocytes of arthritis-induced mice. Kind of assay: Splenocyte proliferation in arthritis-induced mice (BrdU ELISA). The following applies: Mus musculus, positive control group (bucillamine 300 mg/kg oral). Here is the method:
Bovine type II collagen and adjuvant were separately emulsified, and each emulsion was subcutanesously injected at a dose of 100 μg to the tail. Three weeks later, a booster was achieved by the intraperitoneal injection of 100 μg of bovine type II collagen to induce arthritis. Immediately after the induction, drugs were administered for 21 days and their inhibitory activity against arthritis was measured. The mice were orally administered with suspensions of indomethacin (1 mg/kg), meloxicam (4 mg/kg), bucillamine (300 mg/kg), and the mixture of extracts from Trachelospermi Caulis and Paeonia Suffruticosa Andrews (SI-000902), every day. For comparison, a normal group (arthritis not induced) and a control (administered with vehicle) were employed. The extract mixture (solid extract, soft extract) was dispersed at a concentration of 20, 50, 100, 200 and 400 mg/kg in a 1% carboxymethyl-cellulose sodium solution before the oral administration. Severity of edema was measured in the four feet of each mouse by blind test with the naked eye every three days and evaluated as grades 0 to 4. The spleen was aseptically excised from arthritis-induced mice, minced and filtered through a filter to separate and collect only the cells. […] After incubation, the cells were fixed, and suppressive activity against splenocyte proliferation was determined using a BrdU ELISA cell proliferation assay kit (Roche).

The subject of another assay is IL-2. Kind of assay: IL-2 production of splenocytes of arthritis-induced mice (ELISA). The following applies: positive control group (bucillamine 300 mg/kg oral). Here is the method: (§1) Bovine type II collagen and adjuvant were separately emulsified, and each emulsion was subcutanesously injected at a dose of 100 μg to the tail. Three weeks later, a booster was achieved by the intraperitoneal injection of 100 μg of bovine type II collagen to induce arthritis. Immediately after the induction, drugs were administered for 21 days and their inhibitory activity against arthritis was measured. The mice were orally administered with suspensions of indomethacin (1 mg/kg), meloxicam (4 mg/kg), bucillamine (300 mg/kg), and the mixture of extracts from Trachelospermi Caulis and Paeonia Suffruticosa Andrews (SI-000902), every day. For comparison, a normal group (arthritis not induced) and a control (administered with vehicle) were employed. The extract mixture (solid extract, soft extract) was dispersed at a concentration of 20, 50, 100, 200 and 400 mg/kg in a 1% carboxymethyl-cellulose sodium solution before the oral administration. Severity of edema was measured in the four feet of each mouse by blind test with the naked eye every three days and evaluated as grades 0 to 4. The spleen was aseptically excised from arthritis-induced mice and used to give a cell suspension. […] The level of the cytokines IFN-γ and IL-2 in the medium was measured using an ELISA kit (R&D systems) to examine the inhibitory effect of the extract mixture on the cytokines.

The subject of another assay is IFN-γ. Kind of assay: IFN-γ production of splenocytes of arthritis-induced mice (ELISA). The following applies: positive control group (bucillamine 300 mg/kg oral). Here is the method: as §1
For orientation: In an ELISA, binding on a coated surface is turned into a signal by an enzyme label.

What is called inhibition is the percentage by which the read-out fell short of the control.

For the compound `CC(C)(S)C(=O)N[C@@H](CS)C(=O)O` [bucillamine], in assay [1], the inhibition at 300 mg/kg came to 51.1%. The “suppression of IL-2” value with IL-2 came out at 39.1%. The “suppression of IFN-γ” value in the assay with IFN-γ was 88.5%.

The values are drawn from US9694045B2, “Pharmaceutical composition for preventing or treating inflammatory diseases comprising trachelospermi caulis extract and paeonia suffruticosa andrews extract, and method for preparing the same” (SINIL PHARMACEUTICAL CO., LTD., priority 2010, dated 2017).
